Source: US20240424112A1, “TETRAHYDROISOQUINOLINE COMPOUNDS THAT ARE KEAP1 BINDERS” (C4X Discovery Limited, priority 2021, published 2024)

Legend:
[1] = system: NRF2 mediated gene NAD(P)H:quinone acceptor oxidoreductase 1 (NQO1) mRNA in BEAS-2B cells; assay: Beas2B NQO1 mRNA cell based assay; settings: Homo sapiens, 24 h, vs vehicle (0.1% DMSO), read-out: EC50 (increase in NQO1 mRNA)
Method: Beas2B NQO1 mRNA Cell Based Assay
The up-regulation of the NRF2 mediated gene NAD(P)H:quinone acceptor oxidoreductase 1 (NQO1) was measured using the following assay method: BEAS-2B cells (ATCC CRL-9609) were plated in 96-well clear plates at 20,000 cells/well in 75 μL of cell culture media and incubated overnight (37° C., 5% CO2). On day 2, 25 μL of compound or controls were added to the cells for 24 h. On day 3, the medium was aspirated from the plate and the Cells-to-CT™ 1-Step TaqMan® Kit (Ambion A25603) was used to perform expression analysis directly from cultured cells without RNA purification according to the manufacturer's instructions.
Briefly, cells were washed with ice cold PBS and 22.5 μL of room-temperature DNase/Lysis solution was added to the cells and incubated at room temperature for 5 minutes. To stop the reaction, 2.25 μL of stop solution was added to the cell lysate. The samples were diluted 1:5 using nuclease free water and 2.5 μL transferred into the PCR plate. Real-time PCR was performed using the C-1000 Thermal Cycler (Bio-Rad) using human beta actin as the internal control. The cDNA was amplified with a specific primer for NQO1 using the 1-step RT-PCR master mix (Ambion Cells-to-CT™ 1-Step TaqMan® Kit A25603). The primers/probes sets that were used for amplification of cDNA were obtained from TaqMan Gene Expression Assays (Applied Biosystems). The comparative CT (ΔΔCT) relative quantification method was used to calculate the relative mRNA level of the target gene NQO1 as described in the Applied Biosystems Chemistry Guide. The data are expressed as an increase in target gene mRNA compared to vehicle (0.1% DMSO) control and the EC50 values were determined by fitting the data to a four parameter logistic fit using XLfit or XE Runner within ActivityBase.

[2] = biological target: T1, BRD4 long isoform (Homo sapiens, UniProt O60885); assay: BRD4 degradation assay (Western blot, MDA-MB-468 cells), long isoform; format: cell-based; settings: MDA-MB-468, n = 2
T1 construct: endogenous in cells; host or cells: MDA-MB-468
Method: (§1) BRD4 Degradation Assay Protocol Summary
(§2) MDA-MB-468 cells were cultured routinely in DMEM supplemented with 10% heat inactivated FBS and 1% Penicillin-Streptomycin (Thermofisher Scientific) at 37° C. 5% CO2. Cells were seeded in 6-well plates at 4*10^5 cells per well and left to adhere overnight. Example compounds were solubilised in DMSO to make 10 mM stocks followed by serial dilutions in DMSO to 200× final concentration. These were further diluted in culture media to give 20× treatment stocks before addition to cells to a 1× final concentration. Cells were then incubated at 37° C. 5% CO2 for 24 or 48 hours after which cells were lysed in RIPA buffer supplemented with cOmplete Mini Protease Inhibitor Cocktail and PhosSTOP™ (Roche). Lysates were clarified by centrifugation at 13,000 RPM for 10 minutes and the protein concentration of the resulting supernatants determined by BCA assay (ThermoFisher Scientific) as per manufacturer's instructions. Lysates were denatured and reduced in NuPAGE LDS sample buffer and sample reducing agent before 10 μg was loaded onto NuPAGE […] Tris-Acetate Mini Protein Gels (ThermoFisher Scientific). Protein was transferred to nitrocellulose membranes using a Trans-Blot Turbo Transfer System (Bio-Rad) before blocking for 1 hour in Intercept (TBS) Blocking Buffer (Li-Cor). Membranes were then incubated overnight with BRD4 (ab128874; Abcam) and α-tubulin (T6074; Sigma-Aldrich) antibodies diluted 1:2000 and 1:16,000 respectively in Tris-buffered saline 0.05% Tween 20 (TBS-T). The following day, membranes were washed with TBS-T before addition of anti-rabbit IRDye 800 CW and anti-mouse IRDye 680LT secondary antibodies (LiCor) (diluted 1:10,000 in TBS-T) for one hour. Membranes were then washed with TBS-T before imaging using a LICOR Odyssey Infrared Imaging System with Image Studio Ver 5.2 software (LiCor). Densitometry analysis was carried out in the LiCor image studio software where BRD4 signal was normalised to α-tubulin signal. Percentage degradation of BRD4 relative to the DMSO treated negative control was calculated as: =100−(signal of interest/signal of control sample*100). BRD4 degradation by dBET1 was used as positive control for each plate. Data obtained for the percentage degradation of BRD4 upon treatment with the Example compounds 1-6 and Comparative Example compounds 1-3 at 24 hour incubation are shown in Table 2 and with 48 hour incubation are shown in Table 3.

[3] = biological target: T2, BRD4 short isoform (Homo sapiens, UniProt O60885); assay: BRD4 degradation assay (Western blot, MDA-MB-468 cells), short isoform; format: cell-based; settings: MDA-MB-468, n = 2
T2 construct: endogenous in cells; host or cells: MDA-MB-468
Method: as §1, §2

[4] = biological target: T3, BRD4 (Homo sapiens, UniProt O60885); assay: BRD4 degradation assay (Western blot, MDA-MB-468 cells), isoform not given; format: cell-based
T3 construct: endogenous in cells; host or cells: MDA-MB-468
Method: as §1
MDA-MB-468 cells were cultured routinely in DMEM supplemented with 10% heat inactivated FBS and 1% Penicillin-Streptomycin (Thermofisher Scientific) at 37° C. 5% CO2. Cells were seeded in 6-well plates at 4*10^5 cells per well and left to adhere overnight. Example compounds were solubilised in DMSO to make 10 mM stocks followed by serial dilutions in DMSO to 200× final concentration. These were further diluted in culture media to give 20× treatment stocks before addition to cells to a 1× final concentration. Cells were then incubated at 37° C. 5% CO2 for 24 or 48 hours after which cells were lysed in RIPA buffer supplemented with cOmplete Mini Protease Inhibitor Cocktail and PhosSTOP™ (Roche). Lysates were clarified by centrifugation at 13,000 RPM for 10 minutes and the protein concentration of the resulting supernatants determined by BCA assay (ThermoFisher Scientific) as per manufacturer's instructions. Lysates were denatured and reduced in NuPAGE LDS sample buffer and sample reducing agent before 10 μg was loaded onto NuPAGE […] Tris-Acetate Mini Protein Gels (ThermoFisher Scientific). […] Percentage degradation of BRD4 relative to the DMSO treated negative control was calculated as: =100−(signal of interest/signal of control sample*100). […]

Cc1sc2c(c1C)C(c1ccc(Cl)cc1)=N[C@@H](CC(=O)NCC(=O)NCCn1nnc(COc3ccc(Cl)c4c3[C@@H](CN3CC5(CC5)CC3=O)N(C(=O)[C@@H]3CCCC[C@]3(C)C(=O)O)CC4)c1C)c1nnc(C)n1-2 [Example 1, (1S,2R)-2-((S)-5-Chloro-8-((1-(2-(2-(2-((S)-4-(4-chlorophenyl)-2,3,9-trimethyl-6H-thieno[3,2-f][1,2,4]triazolo[4,3-a][1,4]diazepin-6-yl)acetamido)acetamido)ethyl)-5-methyl-1H-1,2,3-triazol-4-yl)methoxy)-1-((6-oxo-5-azaspiro[2.4]heptan-5-yl)methyl)-1,2,3,4-tetrahydroisoquinoline-2-carbonyl)-1-methylcyclohexane-1-carboxylic acid]
EC50 [1]: 187 nM
% Mean Degradation of BRD4 ([2]; 24 h, 0.01 μM): 75%
% Mean Degradation of BRD4 ([2]; 24 h, 0.1 μM): 99%
% Mean Degradation of BRD4 ([2]; 24 h, 1 μM): 101%
% Mean Degradation of BRD4 ([2]; 48 h, 0.01 μM): 74%
% Mean Degradation of BRD4 ([2]; 48 h, 0.1 μM): 97%
% Mean Degradation of BRD4 ([2]; 48 h, 1 μM): 99%
% Mean Degradation of BRD4 ([3]; 24 h, 0.01 μM): 69%
% Mean Degradation of BRD4 ([3]; 24 h, 0.1 μM): 97%
% Mean Degradation of BRD4 ([3]; 24 h, 1 μM): 96%
% Mean Degradation of BRD4 ([3]; 48 h, 0.01 μM): 68%
% Mean Degradation of BRD4 ([3]; 48 h, 0.1 μM): 93%
% Mean Degradation of BRD4 ([3]; 48 h, 1 μM): 100%
degradation of BRD4 ([4]; at 0.01 μM): up to 75%
target protein (BRD4) degradation ([4]; at ≥0.1 μM): almost complete target protein degradation
